Measurements reported in patent publication US20240228556A9, “NOVEL CANINE ODORANT BINDING PROTEINS” (SPECIALITES PET FOOD, priority 2021, published 2024).
Where a chain is given by its changes, count along the chain named. Blank lines part the entries; values can stand above or below the compound they belong to.

Columns and labels:
[1] = target: T1, CfamOBP2-K83 (variant of Seq ID No 15) (Canis lupus familiaris, UniProt O18874, E83K); experiment: Fluorescence competitive binding assay (NPN displacement); settings: 2 μM OBP, 4 μM NPN, 20° C., pH 7.5, odorant 0.5-20 μM
T1 construct: His tag (from pQE31 vector) (N); made in house; host or cells: E. coli M15 (plasmid pQE31)
T1 sequence (O18874 19-180 E83K): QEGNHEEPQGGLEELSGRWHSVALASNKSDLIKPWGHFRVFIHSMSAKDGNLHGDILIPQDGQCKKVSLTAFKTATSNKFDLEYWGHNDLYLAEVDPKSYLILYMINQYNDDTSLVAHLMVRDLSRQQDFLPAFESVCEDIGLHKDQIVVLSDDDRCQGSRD
Method: (§1) Binding experiments were performed at 20° C. on a spectrofluorometer (Cary-Eclipse (Agilent, USA)) equipped with magnetic stirrers and a Peltier control temperature unit. The fluorescent probes: 1-N-phenylnaphthylamine (NPN) (Sigma, USA), 8-anilinonaphthalene-1-sulfonic acid (1,8-ANS) (Sigma, USA), and SYPRO™ orange (ThermoFischer, France) were excited at 337 nm, 372 nm and 490 nm respectively. Emission spectra were recorded between 350 and 500 nm for NPN; 400 and 600 nm for 1,8-ANS and 510 and 700 nm for SYPRO orange. Fluorescent probe binding experiments were performed in a 2 mL cuvette of 1 cm path length containing 2 μM OBPs in 50 mM potassium phosphate buffer at pH 7.5. The fluorescent probes were prepared in 100% MeOH at 0.1, 1, 10 and 100 mM. The concentration of the different fluorescent probes was increased into the 1 mL solution containing CfamOBPs until the adding allow to reach a fluorescence maximum of emission intensity. The binding curves were then traced using SigmaPlot 12.5 software.
(§2) Ligand competitive binding experiments were performed in cuvettes containing 2 μM OBPs, 10 μM fluorescent probe for CfamOBP1 and its variant (Seq ID No 14) and CfamOBP3, 4 μM fluorescent probe for CfamOBP2 and its variant (Seq ID No 15) and 1.25× fluorescent probe for CfamOBP4, in 50 mM potassium phosphate buffer at pH 7.5.
(§3) Odorants were prepared in 100% MeOH and aliquots were added to final concentrations of 0.5-20 μM. The experiments were performed in triplicate. The obtained data were then traced and analysed using SigmaPlot 12.5 software.

CfamOBP2 = target: T2, CfamOBP2 (Canis lupus familiaris, UniProt O18874); experiment: as above; settings: 2 μM OBP, 4 μM NPN, 20° C., pH 7.5, odorant 0.5-20 μM
T2 construct: His tag (from pQE31 vector) (N); made in house; host or cells: E. coli M15 (plasmid pQE31)
T2 sequence (O18874 19-180): T1 sequence (O18874 19-180 E83K) with K65E
Method: as §1, §2, §3

CfamOBP3 = target: T3, CfamOBP3 (Canis lupus familiaris, UniProt H2B3G5); experiment: as above; settings: 2 μM OBP, 10 μM NPN, 20° C., pH 7.5, odorant 0.5-20 μM
T3 construct: His tag (from pQE31 vector) (N); made in house; host or cells: E. coli M15 (plasmid pQE31)
T3 sequence (H2B3G5 16-190): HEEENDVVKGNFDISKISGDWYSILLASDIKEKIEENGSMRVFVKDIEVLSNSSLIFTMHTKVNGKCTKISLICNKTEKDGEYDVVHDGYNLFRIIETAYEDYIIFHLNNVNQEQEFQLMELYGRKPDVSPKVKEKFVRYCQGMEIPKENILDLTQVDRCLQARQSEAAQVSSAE
Method: as §1, §2, §3

[2] = target: T4, CfamOBP3-102Y (mutant of Seq ID No 35) (Canis lupus familiaris, UniProt H2B3G5, H102Y); experiment: Isothermal titration calorimetry; assay type: binding; settings: ITC at 25° C., 25 μM protein, 250 μM odorant, pH 7.5; mutant compared with CfamOBP3
T4 construct: His tag (MRGSHHHHHH leader of pQE31, then TDP from the BamHI site) (N); made in house; host or cells: E. coli M15 (plasmid pQE31)
T4 sequence (H2B3G5 16-190 H102Y): T3 sequence (H2B3G5 16-190) with H87Y
Method: Titration experiments were carried at 25° C. using isothermal titration microcalorimeter VP-ITC system (Malvern Instruments, Malvern, UK). 100 mM odorant solution in MeOH were diluted to 250 μM into 100 mM potassium phosphate buffer, pH 7.5 and loaded into the syringe. Protein solutions were prepared at 25 μM in the phosphate buffer and degassed directly prior to experiment and injected into the measure cell. Injections of 10 μL ligand solution into the protein containing cell were performed at time intervals of 210 s with a total of 25 injections. Analysis of the experimental data was performed using the Origin 5.0 program (Malvern Instruments, Malvern, UK) and fitted by a model of one binding site. Binding parameters such as stoichiometry (n) and the association constant (KA) were determined by this fitting.

CfamOBP1 = target: T5, CfamOBP1 (Canis lupus familiaris, UniProt O18873); experiment: Fluorescence competitive binding assay (1,8-ANS displacement); settings: 2 μM OBP, 10 μM 1,8-ANS, 20° C., pH 7.5, odorant 0.5-20 μM
T5 construct: His tag (from pQE31 vector) (N); made in house; host or cells: E. coli M15 (plasmid pQE31)
Method: as §1, with “software. […]” for “software.”
(§4) Odorants were prepared in 100% MeOH and aliquots were added to final concentrations of 0.5-20 μM. […] The obtained data were then traced and analysed using SigmaPlot 12.5 software.

[3] = target: T6, CfamOBP1-L52 (variant of Seq ID No 14) (Canis lupus familiaris, UniProt O18873, S52L); experiment: as above; settings: 2 μM OBP, 10 μM 1,8-ANS, 20° C., pH 7.5, odorant 0.5-20 μM
T6 construct: His tag (from pQE31 vector) (N); made in house; host or cells: E. coli M15 (plasmid pQE31)
T6 sequence (O18873 19-174 S52L): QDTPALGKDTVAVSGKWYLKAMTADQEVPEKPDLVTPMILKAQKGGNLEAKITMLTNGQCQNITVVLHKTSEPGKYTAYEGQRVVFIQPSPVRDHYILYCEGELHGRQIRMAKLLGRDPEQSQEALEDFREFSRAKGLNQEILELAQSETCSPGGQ
Method: as §1, with “software. […]” for “software.”
as §4

T5 sequence (O18873 19-174): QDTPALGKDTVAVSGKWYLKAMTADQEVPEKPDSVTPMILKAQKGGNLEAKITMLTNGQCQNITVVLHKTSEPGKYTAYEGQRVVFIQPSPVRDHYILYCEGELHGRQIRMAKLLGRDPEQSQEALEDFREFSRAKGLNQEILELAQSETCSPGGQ

displacement of the fluorescent probe [1]: able to displace the probes
displacement of the fluorescent probe (CfamOBP2): able to displace the probes
SMILES: CC(C)CCCC(C)CCO (stereo not drawn) [DMO, 3,7-dimethyl-1-octanol]

displacement of the fluorescent probe (CfamOBP3): able to displace the probes
change of Ka value (affinity) versus CfamOBP3 [2]: eight fold increase
SMILES: COc1nccnc1CC(C)C [IBMP, 2-isobutyl-3-methoxypyrazine]

displacement of the fluorescent probe (CfamOBP1): able to displace the probes
displacement of the fluorescent probe [3]: able to displace the probes
SMILES: CC(C)=CCCC(C)CC=O (stereo not drawn) [citronellal]
